Measurements as given in patent US20230021647A1, “METHOD OF TREATING A PATIENT INFECTED WITH A CORONAVIRUS AND HAVING A BASELINE LEVEL OF CRP BELOW 150 MG/L” (Theravance Biopharma R&D IP, LLC, priority 2021, published 2023).
Marks after values point to notes of the source that are not given here.

Tests used:
Assay type in all cases: in vivo, human
[1] = system: acute lung injury associated with COVID-19; assay: Phase 2 study Part 1, multiple ascending dose in hospitalized COVID-19 patients; details: for subjects discharged from the hospital: by Day 21 (placebo 50%); for # Subjects Alive: Part 1, COVID-19 patients
[2] = system: acute lung injury associated with COVID-19; assay: Phase 2 study Part 2, 3 mg vs placebo in hospitalized COVID-19 patients; details: for time to recovery, median: placebo 11
Description: Eligible subjects were stratified by age (≤60 vs >60 years) and concurrent use of antiviral medications (e.g., remdesivir, lopinavir, chloroquine) at baseline. […] Approximately 20% of participants were enrolled with a baseline clinical status score of six (NIPPV or high flow oxygen device) based on the 8-point ordinal scale (Table 13).
The study drug was administered at 3 mg once-daily in a single dose with an additional 3 mg loading dose on day 1, for up to 7 days or until discharge from the hospital, whichever was earlier. Subjects were followed for up to 28 days or until death, whichever was earlier.
Matching placebo was administered once daily for up to 7 days, via inhalation using a vibrating mesh nebulizer.
In Part 2, the primary endpoint was the number of RFDs from randomization through Day 28. Secondary Endpoints were: change from baseline in SaO2/FiO2 ratio on Day 7, proportion of subjects in each category of the 8-point clinical status scale on Days 7, 14, 21 and 28, and proportion of subjects alive and respiratory failure-free on Day 28. […] Additional exploratory endpoints may include: change from baseline in SaO2/FiO2 ratio in mmHg on Day 7, number of VFDs from randomization to Day 28, proportion of subjects with a SaO2/FiO2 ratio >300 on Days 5 and 7, proportion of subjects in each category of the 6-point clinical status scale on Days 7, 14, 21 and 28, proportion of subjects in each category of vital status (death, discharge, hospitalized) on Days 7, 14, 21 and 28, proportion of subjects with an oxygen saturation >90% on room air, proportion of subjects with fever (>37° C. oral or equivalent), chest imaging (when done for clinical care reasons), biomarkers including: nasal SARS-CoV-2 viral load. The safety endpoints were: change from baseline in vital signs and clinical laboratory results, and incidence and severity of TEAEs. The PK endpoints were population PK parameters for compound 1.
The primary endpoint was the number of respiratory failure-free days (RFDs) from randomization through Day 28. A RFD was defined as a day that a subject is alive and not requiring the use of invasive mechanical ventilation, non-invasive positive pressure ventilation, high-flow oxygen devices, or oxygen supplementation from randomization through Day 28. A clinical status score of <4 (Table 13) was equivalent to a respiratory failure-free day. The number of RFDs was 0 for subjects who use respiratory support for 28 days or longer, or for subjects who died on or before Day 28.
Treatment comparisons were performed using a Van Elteren test (a stratified Wilcoxon rank sum test) adjusting for stratification factors. Treatment difference were summarized based on median of RFD between compound 1 and placebo. Additional prognostic baseline covariates (e.g., comorbidities) were included in the sensitivity analyses.
For SaO2/FiO2, treatment comparisons versus placebo were conducted using a mixed-model repeated measures (MMRM) model. The model included fixed effects for randomized treatment group, study day (Day 7, 14, 21 and 28), treatment group by study day interaction, baseline SaO2/FiO2 ratio, treatment group by baseline SaO2/FiO2 ratio interaction, and stratification factors (baseline age group ≤60 vs >60 years, and concurrent use of antiviral medication at baseline Yes vs. No). A random effect for subject was also included in the model. An unstructured covariance matrix was used to estimate covariance of within-patient scores. The Kenward-Roger approximation was used to estimate denominator degrees of freedom. From this model, least squares means, standard errors, treatment differences in LS means, and 95% confidence intervals (CIs) were estimated.

[3] = Phase 1 SAD/MAD study of inhaled compound 1 in healthy subjects
Description: This was a phase 1, 2-part, double-blind, randomized, placebo controlled, sponsor-open, SAD (Part A) and MAD (Part B). Subjects participated in only 1 cohort in only 1 study part.
Part A (SAD) consisted of three (3) cohorts of 8 healthy subjects (6 active and 2 placebo). In each cohort, subjects received a single inhaled dose of compound 1 or placebo. […] Cardiodynamic monitoring via Holter monitors was conducted pre-dose and for at least 24 hours following dosing on Day 1 in each cohort, with rest periods for cardiodynamic electrocardiogram (ECG) extractions time matched to the PK sampling time points.
Part B (MAD) consisted of three (3) cohorts of 10 healthy subjects (8 active and 2 placebo). In each cohort, subjects received inhaled doses once daily (QD) for 7 days. […] Blood samples for PK assessment were also collected pre-dose on the morning of Days 3 through 6. Cardiodynamic monitoring via Holter monitors may be conducted pre-dose on Day 1 and pre-dose and for at least 24 hours following dosing on the morning of Day 7 in each cohort with rest periods for cardiodynamic ECG extractions time matched to the PK sampling time points.
In Parts A and B, safety data (i.e., physical examinations, vital signs, 12-lead safety ECGs, spirometry, clinical laboratory tests, and adverse events [AEs]) were assessed throughout the study; and blood and urine samples were collected for safety assessments. All subjects who received at least one dose of study drug (including subjects who terminated the study early) returned to the CRU 7 (±2) days after the last study drug administration for follow-up procedures, and to determine if any AEs have occurred since the last study visit.
In Part B, subjects received inhaled doses QD for 7 days using a nebulizer device.
Morning doses on Days 1 and 7 were administered under fasting conditions due to cardiodynamic monitoring. On all other times, doses were administered at least 30 minutes after completion of a meal or snack. Hour 0 was defined as the beginning of inhalation in each morning dose administration.

[4] = Part 1, 1 mg QD inhaled, Day 28
[5] = Part 1, 3 mg QD inhaled, Day 28
[6] = Part 1, 10 mg QD inhaled, Day 28
[7] = single and multiple inhaled doses

CCc1cc(O)ccc1-c1ccc2c(-c3nc4c([nH]3)CN(C(C)C)[C@H](C(=O)N3CC(N(C)C)C3)C4)n[nH]c2c1 [Compound 1, (S)-(3-(dimethylamino)azetidin-1-yl)(2-(6-(2-ethyl-4-hydroxyphenyl)-1H-indazol-3-yl)-5-isopropyl-4,5,6,7-tetrahydro-3H-imidazo[4,5-c]pyridin-6-yl)methanone]
Still in Hospital at Day 28 ([1]; Part 1, 1 mg): 0 subjects (%) | Died (All-Cause Mortality) ([1]; Part 1, 1 mg QD inhaled): 1 (16.7%) subjects (%) | # Subjects Respiratory Failure-Free [1, 4]: 5 (83.3%) subjects (%) | Proportion of Subjects Alive and Respiratory Failure-free [1, 4]: 5 (83.3%) subjects (%) | deaths observed ([1]; Part 1, 1 mg group): one | Hospital Discharge ([1]; Part 1, 1 mg, Day 7): 0 subjects (%) | Hospital Discharge ([1]; Part 1, 1 mg, Day 14): 2 (33.3%) subjects (%) | Hospital Discharge ([1]; Part 1, 1 mg, Day 21): 3 (50.0%) subjects (%) | Clinical Status 1-Not hospitalized, no limitations on activities ([1]; Part 1, 1 mg, Day 28): 5 (83.3%) subjects (%) | Clinical Status 2-Not hospitalized, but with limitations on activities and/or requiring home oxygen ([1]; Part 1, 1 mg, Day 28): 0 subjects (%) | Clinical Status 3-Hospitalized, not requiring supplemental oxygen, and no longer requiring ongoing medical care ([1]; Part 1, 1 mg, Day 28): 0 subjects (%) | Clinical Status 4-Hospitalized, not requiring supplemental oxygen, but requiring ongoing medical care ([1]; Part 1, 1 mg, Day 28): 0 subjects (%) | Clinical Status 5-Hospitalized, requiring supplemental oxygen ([1]; Part 1, 1 mg, Day 28): 0 subjects (%) | Clinical Status 6-Hospitalized, on non-invasive ventilation or high-flow oxygen devices ([1]; Part 1, 1 mg, Day 28): 0 subjects (%) | Clinical Status 7-Hospitalized, on invasive mechanical ventilation or extracorporeal membrane oxygenation ([1]; Part 1, 1 mg, Day 28): 0 subjects (%) | Clinical Status 8-Death ([1]; Part 1, 1 mg, Day 28): 1 (16.7%) subjects (%) | Hospital Discharge ([1]; Part 1, 1 mg, Day 28): 5 (83.3%) subjects (%) | Still in Hospital at Day 28 ([1]; Part 1, 3 mg): 0 subjects (%) | Died (All-Cause Mortality) ([1]; Part 1, 3 mg QD inhaled): 0 subjects (%) | # Subjects Respiratory Failure-Free [1, 5]: 6 (85.7%)* subjects (%) | Proportion of Subjects Alive and Respiratory Failure-free [1, 5]: 6 (85.7%)* subjects (%) | Hospital Discharge ([1]; Part 1, 3 mg, Day 7): 1 (14.3%) subjects (%) | Hospital Discharge ([1]; Part 1, 3 mg, Day 14): 2 (28.6%) subjects (%) | Hospital Discharge ([1]; Part 1, 3 mg, Day 21): 6 (85.7%) subjects (%) | Clinical Status 1-Not hospitalized, no limitations on activities ([1]; Part 1, 3 mg, Day 28): 5 (83.3%) subjects (%) | Clinical Status 2-Not hospitalized, but with limitations on activities and/or requiring home oxygen ([1]; Part 1, 3 mg, Day 28): 0 subjects (%) | Clinical Status 3-Hospitalized, not requiring supplemental oxygen, and no longer requiring ongoing medical care ([1]; Part 1, 3 mg, Day 28): 0 subjects (%) | Clinical Status 4-Hospitalized, not requiring supplemental oxygen, but requiring ongoing medical care ([1]; Part 1, 3 mg, Day 28): 1 (16.7%) subjects (%) | Clinical Status 5-Hospitalized, requiring supplemental oxygen ([1]; Part 1, 3 mg, Day 28): 0 subjects (%) | Clinical Status 6-Hospitalized, on non-invasive ventilation or high-flow oxygen devices ([1]; Part 1, 3 mg, Day 28): 0 subjects (%) | Clinical Status 7-Hospitalized, on invasive mechanical ventilation or extracorporeal membrane oxygenation ([1]; Part 1, 3 mg, Day 28): 0 subjects (%) | Clinical Status 8-Death ([1]; Part 1, 3 mg, Day 28): 0 subjects (%) | Hospital Discharge ([1]; Part 1, 3 mg, Day 28): 7 (100%) subjects (%) | subjects discharged from the hospital ([1]; Part 1, 3 mg): 86% | Still in Hospital at Day 28 ([1]; Part 1, 10 mg): 0 subjects (%) | Died (All-Cause Mortality) ([1]; Part 1, 10 mg QD inhaled): 0 subjects (%) | # Subjects Respiratory Failure-Free [1, 6]: 6 (100.0%) subjects (%) | Proportion of Subjects Alive and Respiratory Failure-free [1, 6]: 6 (100.0%) subjects (%) | Hospital Discharge ([1]; Part 1, 10 mg, Day 7): 0 subjects (%) | Hospital Discharge ([1]; Part 1, 10 mg, Day 14): 2 (33.3%) subjects (%) | Hospital Discharge ([1]; Part 1, 10 mg, Day 21): 6 (100%) subjects (%) | Clinical Status 1-Not hospitalized, no limitations on activities ([1]; Part 1, 10 mg, Day 28): 5 (83.3%) subjects (%) | Clinical Status 2-Not hospitalized, but with limitations on activities and/or requiring home oxygen ([1]; Part 1, 10 mg, Day 28): 1 (16.7%) subjects (%) | Clinical Status 3-Hospitalized, not requiring supplemental oxygen, and no longer requiring ongoing medical care ([1]; Part 1, 10 mg, Day 28): 0 subjects (%) | Clinical Status 4-Hospitalized, not requiring supplemental oxygen, but requiring ongoing medical care ([1]; Part 1, 10 mg, Day 28): 0 subjects (%) | Clinical Status 5-Hospitalized, requiring supplemental oxygen ([1]; Part 1, 10 mg, Day 28): 0 subjects (%) | Clinical Status 6-Hospitalized, on non-invasive ventilation or high-flow oxygen devices ([1]; Part 1, 10 mg, Day 28): 0 subjects (%) | Clinical Status 7-Hospitalized, on invasive mechanical ventilation or extracorporeal membrane oxygenation ([1]; Part 1, 10 mg, Day 28): 0 subjects (%) | Clinical Status 8-Death ([1]; Part 1, 10 mg, Day 28): 0 subjects (%) | Hospital Discharge ([1]; Part 1, 10 mg, Day 28): 6 (100%) subjects (%) | subjects discharged from the hospital ([1]; Part 1, 10 mg): 100% | # Subjects Alive ([1]; 1 mg QD inhaled, Day 28): 5 (83.3%) subjects (%) | # Subjects Alive ([1]; 3 mg QD inhaled, Day 28): 7 (100.0%)* subjects (%) | # Subjects Alive ([1]; 10 mg QD inhaled, Day 28): 6 (100.0%) subjects (%) | trend vs placebo in oxygenation, clinical status, mortality, respiratory-failure free, time to discharge, Borg Dyspnea Score ([1]; Part 1, all compound 1 groups): positive trend | trend in reduction of inflammation markers (hsCRP, IFN-g, IL-6, IP-10) and RAGE ([1]; Part 1, mostly 3 mg and 10 mg doses): positive trend | plasma exposure ([2]; Part 2): low | tolerability ([2]; Part 2): well-tolerated | serious infections, patients ([2]; Part 2, placebo 2.0%): 1.0% | venous thromboembolism, patients ([2]; Part 2, placebo 4.9%): none | adverse events of liver abnormalities or disease, patients ([2]; Part 2, placebo 7.8%): 9.7% | patients discontinued from study, withdrawal for adverse event ([2]; Part 2, placebo 13 (12.7%)): 8 (7.8%) n (%) | serious adverse events, patients ([2]; Part 2, placebo 15.7%): 9.7% | adverse events, patients ([2]; Part 2, placebo 41.2%): 34.0% | secondary endpoints vs placebo: change in SaO2/FiO2 at Day 7, 8-point Clinical Status, alive and respiratory failure-free at Day 28 ([2]; Part 2 ITT): no difference | 28-day all-cause mortality HR ([2]; Part 2 ITT vs placebo, p=0.08): 0.42 | time to recovery HR ([2]; Part 2 ITT vs placebo, p=0.12): 1.27 | RFDs from randomization through Day 28, median ([2]; Part 2 ITT, 3 mg QD, placebo 21, p=0.61): 21 days | time to recovery, median ([2]; Part 2 ITT): 10 days | 28-day all-cause mortality, total number of deaths ([2]; Part 2 ITT, placebo 13): 6 | 28-day all-cause mortality HR ([2]; Part 2 post-hoc, baseline CRP <150 mg/L vs placebo, p=0.009): 0.097 | time to recovery HR ([2]; Part 2 post-hoc, baseline CRP <150 mg/L vs placebo, p=0.02): 1.48 | 28-day all-cause mortality, total number of deaths ([2]; Part 2 post-hoc, baseline CRP <150 mg/L, placebo 9): 1 | time to recovery, median ([2]; Part 2 post-hoc, baseline CRP <150 mg/L): 10 days | time to recovery or 28-day all-cause mortality vs placebo ([2]; Part 2 post-hoc, baseline CRP >150 mg/L (n=30)): no difference | AUC0-24 ([3]; 1 mg QD inhaled, Day 1): 18.42 ng·h/mL | Cmax ([3]; 1 mg QD inhaled, Day 7): 5.699 ng/mL | Tmax [3, 7]: approximately 1 hour | terminal elimination half-life [3, 7]: approximately 24 hours | t1/2 ([3]; single inhaled dose 3 mg, mean (SD)): 24.73 (2.802) hr
